The source made the active and inactive calls.
How the values were obtained:
[1] = biological target: T1, Microphthalmia-associated transcription factor (Homo sapiens, UniProt O75030); test: reducers of TRPM1 reporter luminescence, concentration series – cell-based, SK-MEL-5, cherry-picked, set 3, MITF inhibitor project, dose response (AID 493073); format: functional;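 further: SK-MEL-5 melanoma cells with luciferase driven by the MITF target TRPM1 promoter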
T1 sequence (O75030 whole entry): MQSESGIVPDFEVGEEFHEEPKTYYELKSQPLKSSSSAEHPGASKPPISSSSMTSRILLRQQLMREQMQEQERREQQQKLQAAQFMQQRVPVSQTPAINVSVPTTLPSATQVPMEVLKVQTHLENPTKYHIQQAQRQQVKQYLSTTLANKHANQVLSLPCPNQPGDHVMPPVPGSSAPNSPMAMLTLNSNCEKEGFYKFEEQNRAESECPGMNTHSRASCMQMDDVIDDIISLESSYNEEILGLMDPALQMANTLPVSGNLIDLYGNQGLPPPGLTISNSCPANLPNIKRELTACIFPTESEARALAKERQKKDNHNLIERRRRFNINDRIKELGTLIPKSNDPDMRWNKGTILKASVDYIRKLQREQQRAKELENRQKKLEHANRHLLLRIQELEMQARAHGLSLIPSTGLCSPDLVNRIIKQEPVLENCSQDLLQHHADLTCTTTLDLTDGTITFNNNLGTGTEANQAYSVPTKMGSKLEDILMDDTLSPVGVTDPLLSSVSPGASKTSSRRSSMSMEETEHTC

[2] = viability of HCT116 lacking mutant beta-catenin – cell-based, human colon tumor, dose response (AID 1045); format: functional;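 further: HCT116 colon tumor cells with beta catenin knocked out; cells exposed to compound for 60 hours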
Fatty acid synthase [3] = biological target: T2, Fatty acid synthase (Homo sapiens, UniProt P49327); test: inhibition of human FAS-TE enzyme activity – biochemical, endpoint fluorescence intensity, uHTS hits, dose response (AID 624327); format: functional;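 further: fluorescence from hydrolysis of an O-methyl fluorescein acyl ester substrate by the enzyme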
[4] = viability of PTEN-deleted HCT116 cells – cell-based, HCT116 PTEN knockout, dose response (AID 1047); format: functional;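 further: HCT116 colon tumor cells with PTEN knocked out; cells exposed to compound for 60 hours before readout; potency for loss of cell viability measured by luminescence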
[5] = loss of viability in HepG2 cells – cell-based, CellTiter-Glo, cherry-picked, cytotoxicity control for Shn3 inhibitor project, dose response (AID 624134); format: functional
[6] = reduction of Shn3 3'UTR-driven luciferase in osteoblasts – cell-based, Clone20 osteoblasts, firefly luciferase, cherry-picked, dose response (AID 624132); format: functional;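 further: firefly luciferase luminescence from reporter carrying the Shn3 3'UTR in osteoblasts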
[7] = non-specific 3'UTR reporter inhibition in Clone20-Shn3RL – cell-based, Renilla luciferase, cherry-picked, counter-screen for Shn3 inhibitor project, dose response (AID 624133); format: functional
Vero = test: viability of Vero cells under compound – cytotoxicity control for flavivirus capping enzyme inhibitors (AID 588742); format: functional; details: Chlorocebus sabaeus
Mu-type opioid receptor = Mu-type opioid receptor (Homo sapiens, UniProt P35372); test: HTS Image-Based Screen for Agonists of the MOR Receptor. [Related pubchem assays (depositor defined):AID1777, AID1785, AID1786, AID2133]; format: functional;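 further: imaging of beta-arrestin GFP recruitment into spots after receptor activation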
[8] = biological target: T3, Kappa-type opioid receptor (Homo sapiens, UniProt P41145); format: functional
[9] = biological target: T4, Delta-type opioid receptor (Homo sapiens, UniProt P41143); test: HTS Image-Based Screen for Antagonists of the DOR Receptor. [Related pubchem assays (depositor defined):AID1777, AID1785, AID1786, AID2133]; format: functional
Beta-galactosidase = Beta-galactosidase (Escherichia coli, UniProt Q8VNN2); format: functional
Fatty acid synthase [10] = biological target: T2, Fatty acid synthase; test: inhibition of human FAS-TE enzyme activity – biochemical, kinetic fluorescence intensity, dose response (AID 624326); format: functional;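 further: rate of fluorescence rise from hydrolysis of a fluorogenic O-methyl fluorescein ester substrate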
[11] = biological target: T4, Delta-type opioid receptor; test: HTS Image-Based Screen for Agonists of the DOR Receptor. [Related pubchem assays (depositor defined):AID1777, AID1786, AID2133]; format: functional
[12] = biological target: T3, Kappa-type opioid receptor; format: functional; remark: listed apart in the source
[13] = viability loss in THP-1 monocytes – THP-1 cells, cytotoxicity control for Vif-APOBEC3G degradation inhibitor project, dose response (AID 1117359); format: functional; details: THP-1
Caspase-6 = biological target: T5, Caspase-6 (Homo sapiens, UniProt P55212); test: inhibition of CASP6 peptide cleavage – biochemical, VEID-R110 fluorescence, cherry-pick, dose response (AID 720632)
T5 sequence (P55212 whole entry): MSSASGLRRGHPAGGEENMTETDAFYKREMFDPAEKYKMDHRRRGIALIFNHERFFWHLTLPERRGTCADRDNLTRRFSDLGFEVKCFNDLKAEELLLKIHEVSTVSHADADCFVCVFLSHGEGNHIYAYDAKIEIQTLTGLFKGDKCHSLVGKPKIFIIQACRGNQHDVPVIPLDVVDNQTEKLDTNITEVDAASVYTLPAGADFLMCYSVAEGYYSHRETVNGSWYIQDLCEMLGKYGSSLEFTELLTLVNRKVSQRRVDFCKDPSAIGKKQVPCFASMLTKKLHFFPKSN

[14] = biological target: Peroxisome proliferator-activated receptor gamma/Nuclear receptor coactivator 1 (Homo sapiens, UniProt P37231); format: functional;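 further: agonist potency as compounds enhance coactivator SRC-1 recruitment to PPARgamma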
[15] = biological target: Peroxisome proliferator-activated receptor gamma/Nuclear receptor coactivator 3 (Homo sapiens, UniProt P37231); format: functional;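 further: agonist potency for raising coactivator recruitment to the receptor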
[16] = biological target: Peroxisome proliferator-activated receptor gamma/Nuclear receptor coactivator 2 (Homo sapiens, UniProt P37231); format: functional;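 further: agonist potency for raising coactivator recruitment to the receptor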
Caspase-3 = biological target: T6, Caspase-3 (Homo sapiens, UniProt P42574); test: SAR Analysis of small molecule inhibitors of Sentrin-specific proteases (SENPs) using a Caspase-3 Selectivity assay. [Related pubchem assays (depositor defined):AID2540, AID2599, AID434973, AID489001]; format: functional
T6 sequence (P42574 whole entry): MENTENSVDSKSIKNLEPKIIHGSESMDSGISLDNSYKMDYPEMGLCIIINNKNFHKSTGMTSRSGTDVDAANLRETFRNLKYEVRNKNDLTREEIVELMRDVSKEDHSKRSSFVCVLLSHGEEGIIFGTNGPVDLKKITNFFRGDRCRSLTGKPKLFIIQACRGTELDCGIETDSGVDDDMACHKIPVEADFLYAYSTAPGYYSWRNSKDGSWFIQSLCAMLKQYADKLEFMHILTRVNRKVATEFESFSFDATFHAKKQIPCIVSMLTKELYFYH

[17] = biological target: T7, Sentrin-specific protease 6 (Homo sapiens, UniProt Q9GZR1); test: SAR Analysis of small molecule inhibitors of Sentrin-specific protease 6 (SENP6) using a Luminescent assay. [Related pubchem assays (depositor defined):AID2582, AID2599]; format: functional
T7 sequence (Q9GZR1 whole entry): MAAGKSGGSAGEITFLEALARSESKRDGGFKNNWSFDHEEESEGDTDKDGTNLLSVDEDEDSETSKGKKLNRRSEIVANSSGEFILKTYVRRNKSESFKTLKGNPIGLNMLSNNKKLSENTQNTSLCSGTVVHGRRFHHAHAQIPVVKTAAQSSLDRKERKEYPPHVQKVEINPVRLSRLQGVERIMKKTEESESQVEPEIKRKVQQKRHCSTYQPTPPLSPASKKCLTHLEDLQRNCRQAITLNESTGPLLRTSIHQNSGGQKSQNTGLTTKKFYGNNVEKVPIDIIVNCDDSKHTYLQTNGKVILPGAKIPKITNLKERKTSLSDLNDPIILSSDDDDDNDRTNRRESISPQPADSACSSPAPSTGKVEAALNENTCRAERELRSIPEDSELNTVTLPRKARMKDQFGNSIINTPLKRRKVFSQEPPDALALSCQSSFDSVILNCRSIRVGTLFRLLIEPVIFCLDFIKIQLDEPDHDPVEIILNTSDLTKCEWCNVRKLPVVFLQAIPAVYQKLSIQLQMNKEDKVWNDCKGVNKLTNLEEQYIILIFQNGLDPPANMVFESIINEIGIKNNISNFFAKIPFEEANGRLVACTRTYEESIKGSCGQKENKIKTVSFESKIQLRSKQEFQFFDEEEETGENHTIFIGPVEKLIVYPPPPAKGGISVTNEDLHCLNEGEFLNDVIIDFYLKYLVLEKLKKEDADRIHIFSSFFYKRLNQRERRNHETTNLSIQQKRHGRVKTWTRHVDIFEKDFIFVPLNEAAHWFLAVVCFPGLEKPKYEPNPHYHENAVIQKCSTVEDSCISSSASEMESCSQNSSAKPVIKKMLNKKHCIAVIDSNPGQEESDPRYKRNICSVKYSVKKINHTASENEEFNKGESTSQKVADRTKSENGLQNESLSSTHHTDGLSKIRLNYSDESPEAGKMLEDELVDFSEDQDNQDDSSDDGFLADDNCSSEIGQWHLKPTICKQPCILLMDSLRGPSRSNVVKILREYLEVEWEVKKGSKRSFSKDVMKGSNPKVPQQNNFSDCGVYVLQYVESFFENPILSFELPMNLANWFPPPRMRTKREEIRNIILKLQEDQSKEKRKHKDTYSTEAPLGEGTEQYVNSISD

[18] = biological target: T8, Sentrin-specific protease 7 (Homo sapiens, UniProt Q9BQF6); test: inhibition of human SENP7 cleavage activity – biochemical, luminescence, SAR follow-up (AID 504497); format: functional
T8 sequence (Q9BQF6 whole entry): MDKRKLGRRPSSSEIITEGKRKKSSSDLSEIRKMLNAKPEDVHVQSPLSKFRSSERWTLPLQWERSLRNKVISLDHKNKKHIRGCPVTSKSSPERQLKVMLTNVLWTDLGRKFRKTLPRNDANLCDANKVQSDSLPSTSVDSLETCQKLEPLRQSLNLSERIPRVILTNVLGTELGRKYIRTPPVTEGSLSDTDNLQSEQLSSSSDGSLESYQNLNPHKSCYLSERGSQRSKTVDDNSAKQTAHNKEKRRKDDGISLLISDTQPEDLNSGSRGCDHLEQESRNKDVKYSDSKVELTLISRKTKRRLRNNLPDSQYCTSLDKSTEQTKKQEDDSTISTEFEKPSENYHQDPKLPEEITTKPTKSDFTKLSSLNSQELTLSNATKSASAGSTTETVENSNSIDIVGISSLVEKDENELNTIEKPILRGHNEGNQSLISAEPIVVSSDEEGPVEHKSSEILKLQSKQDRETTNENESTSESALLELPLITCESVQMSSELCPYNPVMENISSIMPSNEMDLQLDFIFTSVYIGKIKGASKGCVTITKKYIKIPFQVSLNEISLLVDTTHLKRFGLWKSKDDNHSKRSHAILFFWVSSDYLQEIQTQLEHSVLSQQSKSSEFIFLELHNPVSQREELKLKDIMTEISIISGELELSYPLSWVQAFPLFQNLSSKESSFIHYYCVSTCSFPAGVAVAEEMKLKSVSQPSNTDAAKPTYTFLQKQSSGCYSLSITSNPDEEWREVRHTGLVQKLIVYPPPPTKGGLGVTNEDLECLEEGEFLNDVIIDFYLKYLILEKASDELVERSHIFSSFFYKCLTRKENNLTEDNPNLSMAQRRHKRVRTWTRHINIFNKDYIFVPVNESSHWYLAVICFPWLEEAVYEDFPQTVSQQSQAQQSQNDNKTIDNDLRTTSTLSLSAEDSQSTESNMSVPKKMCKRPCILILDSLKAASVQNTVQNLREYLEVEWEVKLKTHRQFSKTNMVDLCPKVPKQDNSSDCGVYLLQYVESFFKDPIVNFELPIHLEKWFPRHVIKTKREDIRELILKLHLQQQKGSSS

[19] = biological target: T9, Sentrin-specific protease 8 (Homo sapiens, UniProt Q96LD8); test: inhibition of human SENP8 cleavage activity – biochemical, luminescence, SAR follow-up (AID 504501); format: functional
T9 sequence (Q96LD8 whole entry): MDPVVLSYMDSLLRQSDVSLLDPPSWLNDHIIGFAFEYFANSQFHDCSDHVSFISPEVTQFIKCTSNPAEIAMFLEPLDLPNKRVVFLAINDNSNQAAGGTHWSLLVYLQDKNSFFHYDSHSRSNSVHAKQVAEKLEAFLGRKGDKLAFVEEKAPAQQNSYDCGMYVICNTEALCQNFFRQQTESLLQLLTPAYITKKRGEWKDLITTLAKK

[20] = biological target: T8, Sentrin-specific protease 7; test: inhibition of human SENP7 cleavage activity – biochemical, luminescence, set 2, SAR follow-up (AID 588600); format: functional
[21] = biological target: T9, Sentrin-specific protease 8; test: inhibition of sentrin protease 8 – biochemical, luminescence, set 2, SAR follow-up (AID 588601); format: functional
[22] = biological target: T7, Sentrin-specific protease 6; test: inhibition of human SENP6 catalytic domain – biochemical, luminescence, set 2, SAR follow-up (AID 588598); format: functional

T3 sequence (P41145 whole entry): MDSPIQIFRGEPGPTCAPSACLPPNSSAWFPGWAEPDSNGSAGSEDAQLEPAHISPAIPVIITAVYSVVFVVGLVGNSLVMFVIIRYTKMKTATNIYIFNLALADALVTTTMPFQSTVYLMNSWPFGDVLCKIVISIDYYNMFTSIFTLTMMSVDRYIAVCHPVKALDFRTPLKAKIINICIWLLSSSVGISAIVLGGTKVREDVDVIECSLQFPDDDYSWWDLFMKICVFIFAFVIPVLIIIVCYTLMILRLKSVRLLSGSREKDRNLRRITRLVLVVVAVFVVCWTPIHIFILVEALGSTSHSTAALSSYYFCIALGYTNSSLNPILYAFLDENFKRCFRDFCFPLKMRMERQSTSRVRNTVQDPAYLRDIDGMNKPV
T2 sequence (P49327 whole entry): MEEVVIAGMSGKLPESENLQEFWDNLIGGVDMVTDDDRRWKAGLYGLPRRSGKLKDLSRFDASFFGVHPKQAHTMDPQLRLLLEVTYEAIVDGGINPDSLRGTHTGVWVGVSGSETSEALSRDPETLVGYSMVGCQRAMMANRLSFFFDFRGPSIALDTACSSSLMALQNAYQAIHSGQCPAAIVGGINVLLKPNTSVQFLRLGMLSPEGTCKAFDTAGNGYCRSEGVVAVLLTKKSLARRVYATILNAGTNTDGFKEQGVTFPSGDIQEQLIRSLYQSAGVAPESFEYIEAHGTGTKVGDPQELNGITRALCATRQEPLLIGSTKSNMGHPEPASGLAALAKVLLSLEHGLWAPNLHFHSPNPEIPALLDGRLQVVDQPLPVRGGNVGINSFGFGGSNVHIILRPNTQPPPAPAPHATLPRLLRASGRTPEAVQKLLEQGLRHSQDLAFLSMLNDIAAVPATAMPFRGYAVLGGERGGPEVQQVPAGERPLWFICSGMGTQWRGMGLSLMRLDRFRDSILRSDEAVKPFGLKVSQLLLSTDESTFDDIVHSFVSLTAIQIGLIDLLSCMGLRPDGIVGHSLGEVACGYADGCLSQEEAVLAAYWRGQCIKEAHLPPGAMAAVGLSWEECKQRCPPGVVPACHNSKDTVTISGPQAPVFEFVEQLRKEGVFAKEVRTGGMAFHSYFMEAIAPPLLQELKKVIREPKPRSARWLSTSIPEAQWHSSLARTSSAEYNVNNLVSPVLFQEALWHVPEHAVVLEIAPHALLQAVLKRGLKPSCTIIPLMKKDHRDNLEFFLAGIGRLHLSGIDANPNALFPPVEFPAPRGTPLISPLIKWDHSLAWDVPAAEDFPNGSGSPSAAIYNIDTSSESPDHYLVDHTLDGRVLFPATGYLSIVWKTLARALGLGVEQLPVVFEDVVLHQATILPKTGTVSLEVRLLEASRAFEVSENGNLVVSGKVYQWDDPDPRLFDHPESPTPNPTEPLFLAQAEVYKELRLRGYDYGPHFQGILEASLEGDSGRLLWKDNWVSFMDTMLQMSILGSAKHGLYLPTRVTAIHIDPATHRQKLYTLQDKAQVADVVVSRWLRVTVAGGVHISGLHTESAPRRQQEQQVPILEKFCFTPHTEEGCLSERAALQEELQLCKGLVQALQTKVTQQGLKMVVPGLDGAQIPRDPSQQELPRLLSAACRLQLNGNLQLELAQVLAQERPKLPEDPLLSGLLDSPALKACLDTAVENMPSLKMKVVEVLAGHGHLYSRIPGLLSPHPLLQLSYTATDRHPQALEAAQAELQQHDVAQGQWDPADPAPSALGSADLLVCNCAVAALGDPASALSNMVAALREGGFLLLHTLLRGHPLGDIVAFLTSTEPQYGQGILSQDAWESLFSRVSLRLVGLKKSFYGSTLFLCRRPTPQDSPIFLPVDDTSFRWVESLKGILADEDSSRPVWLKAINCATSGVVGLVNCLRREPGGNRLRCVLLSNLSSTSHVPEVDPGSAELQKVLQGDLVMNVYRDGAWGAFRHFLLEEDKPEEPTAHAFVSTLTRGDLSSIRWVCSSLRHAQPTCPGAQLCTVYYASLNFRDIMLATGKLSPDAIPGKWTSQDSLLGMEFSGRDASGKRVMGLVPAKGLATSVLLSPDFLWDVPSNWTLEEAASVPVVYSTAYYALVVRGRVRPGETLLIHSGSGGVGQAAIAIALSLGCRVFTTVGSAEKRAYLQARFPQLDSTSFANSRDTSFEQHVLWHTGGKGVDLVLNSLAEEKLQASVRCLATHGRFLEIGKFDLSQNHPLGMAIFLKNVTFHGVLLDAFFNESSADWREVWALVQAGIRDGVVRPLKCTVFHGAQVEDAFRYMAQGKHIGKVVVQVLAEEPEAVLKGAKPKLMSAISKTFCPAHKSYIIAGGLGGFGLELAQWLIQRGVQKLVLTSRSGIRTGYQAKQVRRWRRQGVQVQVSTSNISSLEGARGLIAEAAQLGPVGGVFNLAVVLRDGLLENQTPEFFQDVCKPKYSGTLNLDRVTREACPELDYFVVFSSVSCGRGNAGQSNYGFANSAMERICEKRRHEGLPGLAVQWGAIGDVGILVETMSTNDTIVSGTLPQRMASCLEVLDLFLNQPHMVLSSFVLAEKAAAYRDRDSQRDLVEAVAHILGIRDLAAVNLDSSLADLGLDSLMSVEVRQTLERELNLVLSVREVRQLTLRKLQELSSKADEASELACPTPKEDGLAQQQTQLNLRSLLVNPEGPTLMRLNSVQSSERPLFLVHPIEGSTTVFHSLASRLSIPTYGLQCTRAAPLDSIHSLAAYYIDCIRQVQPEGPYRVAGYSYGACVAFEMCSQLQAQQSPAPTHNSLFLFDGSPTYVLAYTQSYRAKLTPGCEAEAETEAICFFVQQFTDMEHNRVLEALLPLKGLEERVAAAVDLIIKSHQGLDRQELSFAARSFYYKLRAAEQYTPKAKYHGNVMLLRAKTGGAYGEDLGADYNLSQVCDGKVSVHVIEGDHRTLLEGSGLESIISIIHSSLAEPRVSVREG
T4 sequence (P41143 whole entry): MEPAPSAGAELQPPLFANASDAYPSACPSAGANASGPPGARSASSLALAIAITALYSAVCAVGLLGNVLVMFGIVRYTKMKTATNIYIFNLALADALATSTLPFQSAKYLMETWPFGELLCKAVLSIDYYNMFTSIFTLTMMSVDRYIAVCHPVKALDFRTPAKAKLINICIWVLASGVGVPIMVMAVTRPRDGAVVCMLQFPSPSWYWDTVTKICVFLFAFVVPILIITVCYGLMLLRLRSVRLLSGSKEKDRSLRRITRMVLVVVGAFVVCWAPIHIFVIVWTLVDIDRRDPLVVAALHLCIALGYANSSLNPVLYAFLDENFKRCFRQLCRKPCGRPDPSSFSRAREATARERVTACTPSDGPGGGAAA
Mu-type opioid receptor, sequence (P35372 whole entry): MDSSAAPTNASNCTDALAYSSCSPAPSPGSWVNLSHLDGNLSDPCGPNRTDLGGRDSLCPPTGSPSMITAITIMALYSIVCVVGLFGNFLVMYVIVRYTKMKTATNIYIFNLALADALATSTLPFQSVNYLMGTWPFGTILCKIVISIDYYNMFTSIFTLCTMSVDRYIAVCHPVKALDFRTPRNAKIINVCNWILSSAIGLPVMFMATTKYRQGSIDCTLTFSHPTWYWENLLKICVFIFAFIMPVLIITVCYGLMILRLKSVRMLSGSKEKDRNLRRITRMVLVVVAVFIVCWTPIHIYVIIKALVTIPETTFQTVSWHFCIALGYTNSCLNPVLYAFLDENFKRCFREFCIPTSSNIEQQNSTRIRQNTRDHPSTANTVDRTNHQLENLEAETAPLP
Beta-galactosidase, sequence (Q8VNN2 whole entry): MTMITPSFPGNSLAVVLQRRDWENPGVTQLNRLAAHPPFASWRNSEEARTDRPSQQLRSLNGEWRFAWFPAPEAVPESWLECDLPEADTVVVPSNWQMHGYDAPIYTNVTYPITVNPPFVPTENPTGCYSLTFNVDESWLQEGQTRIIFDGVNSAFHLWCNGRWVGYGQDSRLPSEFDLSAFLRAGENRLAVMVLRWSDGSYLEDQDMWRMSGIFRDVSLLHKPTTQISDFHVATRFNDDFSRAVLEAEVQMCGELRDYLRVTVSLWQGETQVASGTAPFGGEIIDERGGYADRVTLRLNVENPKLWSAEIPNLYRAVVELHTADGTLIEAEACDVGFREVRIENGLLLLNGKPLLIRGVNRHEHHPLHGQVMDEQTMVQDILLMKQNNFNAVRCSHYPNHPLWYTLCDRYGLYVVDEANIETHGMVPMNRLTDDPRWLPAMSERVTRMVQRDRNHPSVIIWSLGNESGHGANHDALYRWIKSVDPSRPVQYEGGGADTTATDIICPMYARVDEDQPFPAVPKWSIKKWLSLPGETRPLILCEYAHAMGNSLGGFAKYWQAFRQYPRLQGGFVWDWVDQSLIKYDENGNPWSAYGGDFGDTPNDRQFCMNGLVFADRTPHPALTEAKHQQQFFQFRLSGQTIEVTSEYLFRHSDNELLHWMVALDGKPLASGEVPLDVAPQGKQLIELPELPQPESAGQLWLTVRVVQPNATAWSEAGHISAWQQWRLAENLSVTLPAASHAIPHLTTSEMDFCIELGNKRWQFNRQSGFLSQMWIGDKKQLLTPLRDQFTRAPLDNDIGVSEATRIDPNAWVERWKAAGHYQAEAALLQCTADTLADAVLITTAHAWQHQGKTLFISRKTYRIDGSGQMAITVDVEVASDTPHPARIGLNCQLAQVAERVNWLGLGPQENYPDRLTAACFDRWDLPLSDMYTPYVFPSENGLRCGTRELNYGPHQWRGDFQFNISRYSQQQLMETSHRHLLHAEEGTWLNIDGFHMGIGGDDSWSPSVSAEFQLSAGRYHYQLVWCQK

SMILES: CCC(=O)OCCNc1cc(Sc2nc3ccccc3[nH]2)c2nonc2c1[N+](=O)[O-]
- AC50 [1]: 9.14 µM (active)
- EC50 [2]: 5.01 µM (active)
- IC50 (Fatty acid synthase [3]): 2.04 µM (active)
- EC50 [4]: 6.88 µM (active)
- AC50 [5]: 27.4 µM (active)
- AC50 [6]: 1.09 µM (active)
- AC50 [7]: 8.68 µM (active)
- CC50 (Vero): 19 µM (active)
- EC50 (Mu-type opioid receptor): > 32 µM (inactive)
- IC50 [8]: 19.1 µM
- IC50 [9]: > 32 µM (inactive)
- EC50 (Beta-galactosidase): > 31.5 µM (inactive)
- IC50 (Fatty acid synthase [10]): 845 nM (active)
- EC50 [11]: > 32 µM (inactive)
- IC50 [12]: 2.56 µM (active)
- CC50 [13]: 14.7 µM (active)

SMILES: Oc1ccc(NCc2cccc(OCc3ccc(F)cc3)c2)cc1
- CC50 (Vero): > 40 µM (active)
- AC50 (Caspase-6): 6.29 µM (active)
- EC50 [14]: > 79.4 µM (not active)
- EC50 [15]: > 79.4 µM (not active)
- EC50 [16]: > 79.4 µM (not active)
- CC50 [13]: > 40 µM (active)

SMILES: CCCCc1ccc2nc(NC(=O)c3sccc3Cl)sc2c1
- IC50 (Caspase-3): 1.1 µM (active)
- IC50 [17]: 0.97 µM (active)
- IC50 [18]: 0.96 µM (active)
- IC50 [19]: 0.99 µM (active)
- IC50 [20]: 1.16 µM (active)
- IC50 [21]: 1.06 µM (active)
- IC50 [22]: 1.15 µM (active)

SMILES: O=C(Nc1ccc(-c2noc(/C=C/c3ccccc3)n2)cc1)c1ccc(Br)o1
- IC50 (Caspase-3): > 99 µM (inactive)
- IC50 [17]: > 99 µM (inactive)
- IC50 [18]: > 99 µM (inactive)
- IC50 [19]: > 99 µM (inactive)

— ChEMBL document CHEMBL1201862, “PubChem BioAssay data set” (2004)
